Source: article PMC5218480 (PLoS ONE, 2017)

Tested on: MV-4-11 cells
Test: Gene expression microarray analysis (Affymetrix PrimeView) and GSEA
Type: cell-based, human
Parameters: RFU PODN (11730768_x_at) / Fold change /veh PODN (11730768_x_at) / RFU LINC00158 (11744669_a_at) / Fold change /veh LINC00158 (11744669_a_at) / RFU DUSP10 (11751237_a_at) / Fold change /veh DUSP10 (11751237_a_at) / RFU ID3 (11757404_x_at) / Fold change /veh ID3 (11757404_x_at) / RFU PLEKHG5 (11737974_s_at) / Fold change /veh PLEKHG5 (11737974_s_at) / RFU LRRC4B (11730491_at) / Fold change /veh LRRC4B (11730491_at) / RFU GIMAP4 (11747438_a_at) / Fold change /veh GIMAP4 (11747438_a_at) / RFU KRT8 (11758183_x_at) / Fold change /veh KRT8 (11758183_x_at) / RFU CNN1 (11734310_a_at) / Fold change /veh CNN1 (11734310_a_at) / RFU VPS37D (11726825_at) / Fold change /veh VPS37D (11726825_at) / RFU C10orf10 (11716522_x_at) / Fold change /veh C10orf10 (11716522_x_at) / RFU KIR2DL2 /// KIR2DL4 /// KIR2DL5A /// KIR2DL5B /// KIR2DS1 /// KIR2DS2 /// KIR2DS3 /// KIR2DS4 /// KIR3DL3 /// KIR3DL3 /// KIR3DS1 (11738374_at) / Fold change /veh KIR2DL2 /// KIR2DL4 /// KIR2DL5A /// KIR2DL5B /// KIR2DS1 /// KIR2DS2 /// KIR2DS3 /// KIR2DS4 /// KIR3DL3 /// KIR3DL3 /// KIR3DS1 (11738374_at) / RFU C1QL1 (11718748_at) / Fold change /veh C1QL1 (11718748_at) / RFU TMPRSS4 (11747572_a_at) / Fold change /veh TMPRSS4 (11747572_a_at) / RFU HAMP (11756126_x_at) / Fold change /veh HAMP (11756126_x_at) / RFU RNFT2 (11725882_a_at) / Fold change /veh RNFT2 (11725882_a_at) / RFU NR4A2 (11747474_a_at) / Fold change /veh NR4A2 (11747474_a_at) / RFU ABCC12 (11746883_a_at) / Fold change /veh ABCC12 (11746883_a_at) / RFU TMEM136 (11760407_x_at) / Fold change /veh TMEM136 (11760407_x_at) / RFU CLDN22 /// WWC2 (11732394_at) / Fold change /veh CLDN22 /// WWC2 (11732394_at) / RFU HLA-DPB1 (11760878_x_at) / Fold change /veh HLA-DPB1 (11760878_x_at) / RFU SPINT1 (11716480_a_at) / Fold change /veh SPINT1 (11716480_a_at) / RFU GAP43 (11754022_s_at) / Fold change /veh GAP43 (11754022_s_at) / RFU A4GNT (11735810_at) / Fold change /veh A4GNT (11735810_at) / RFU PRB3 (11715151_x_at) / Fold change /veh PRB3 (11715151_x_at) / RFU TUBB4B (11761932_at) / Fold change /veh TUBB4B (11761932_at) / RFU CAPN14 (11732068_a_at) / Fold change /veh CAPN14 (11732068_a_at) / RFU TMCC2 (11721928_a_at) / Fold change /veh TMCC2 (11721928_a_at) / RFU IRGQ (11745062_a_at) / Fold change /veh IRGQ (11745062_a_at) / RFU FAM174B (11720279_a_at) / Fold change /veh FAM174B (11720279_a_at) / RFU TMPRSS4 (11748680_a_at) / Fold change /veh TMPRSS4 (11748680_a_at) / RFU FAM212B (11763350_a_at) / Fold change /veh FAM212B (11763350_a_at) / RFU PLEKHG5 (11743358_a_at) / Fold change /veh PLEKHG5 (11743358_a_at) / RFU ZSCAN30 (11745921_a_at) / Fold change /veh ZSCAN30 (11745921_a_at) / RFU CMKLR1 (11741424_a_at) / Fold change /veh CMKLR1 (11741424_a_at) / RFU LOC101060620 /// MAPK8IP1 (11723275_at) / Fold change /veh LOC101060620 /// MAPK8IP1 (11723275_at) / RFU SPTSSB (11747773_x_at) / Fold change /veh SPTSSB (11747773_x_at) / RFU PRSS12 (11739890_at) / Fold change /veh PRSS12 (11739890_at) / RFU BIN1 (11741810_x_at) / Fold change /veh BIN1 (11741810_x_at) / RFU WNT11 (11732464_a_at) / Fold change /veh WNT11 (11732464_a_at) / RFU C10orf10 (11716521_a_at) / Fold change /veh C10orf10 (11716521_a_at) / RFU C5orf56 (11738089_at) / Fold change /veh C5orf56 (11738089_at) / RFU CYB561 (11721691_x_at) / Fold change /veh CYB561 (11721691_x_at) / RFU ANKRD19P (11752326_a_at) / Fold change /veh ANKRD19P (11752326_a_at) / RFU OR2T12 /// OR2T33 /// OR2T8 (11738714_s_at) / Fold change /veh OR2T12 /// OR2T33 /// OR2T8 (11738714_s_at) / RFU VCAN (11748164_a_at) / Fold change /veh VCAN (11748164_a_at) / RFU JSRP1 (11732532_at) / Fold change /veh JSRP1 (11732532_at) / RFU KRTAP10-11 (11738290_x_at) / Fold change /veh KRTAP10-11 (11738290_x_at) / RFU MYO3A (11730013_a_at) / Fold change /veh MYO3A (11730013_a_at) / RFU EBF3 (11725865_a_at) / Fold change /veh EBF3 (11725865_a_at) / RFU CAMK2N1 (11719241_x_at) / Fold change /veh CAMK2N1 (11719241_x_at) / RFU C5orf56 (11738088_a_at) / Fold change /veh C5orf56 (11738088_a_at) / RFU OLFML3 (11715873_a_at) / Fold change /veh OLFML3 (11715873_a_at) / RFU LOC100653217 /// NTM (11731650_a_at) / Fold change /veh LOC100653217 /// NTM (11731650_a_at) / RFU MAPK11 (11762145_a_at) / Fold change /veh MAPK11 (11762145_a_at) / RFU FIZ1 (11724087_x_at) / Fold change /veh FIZ1 (11724087_x_at) / RFU OASL (11726364_x_at) / Fold change /veh OASL (11726364_x_at) / RFU SOX15 (11748057_x_at) / Fold change /veh SOX15 (11748057_x_at) / RFU CD79A (11719716_a_at) / Fold change /veh CD79A (11719716_a_at) / RFU HIST1H1D (11736915_at) / Fold change /veh HIST1H1D (11736915_at) / RFU CASKIN2 (11723855_a_at) / Fold change /veh CASKIN2 (11723855_a_at) / RFU LOC730098 (11760151_x_at) / Fold change /veh LOC730098 (11760151_x_at) / RFU OR4N2 (11742367_at) / Fold change /veh OR4N2 (11742367_at) / RFU PRRT2 (11749266_a_at) / Fold change /veh PRRT2 (11749266_a_at) / RFU SNX32 (11753110_a_at) / Fold change /veh SNX32 (11753110_a_at) / RFU CDHR5 (11726645_a_at) / Fold change /veh CDHR5 (11726645_a_at) / RFU RCAN1 (11760418_a_at) / Fold change /veh RCAN1 (11760418_a_at) / RFU FAM167A (11723789_a_at) / Fold change /veh FAM167A (11723789_a_at) / RFU FAM26E (11764081_at) / Fold change /veh FAM26E (11764081_at) / RFU ISYNA1 (11749810_s_at) / Fold change /veh ISYNA1 (11749810_s_at) / RFU ACY1 (11761880_at) / Fold change /veh ACY1 (11761880_at) / RFU 11764098_at / Fold change /veh 11764098_at / RFU SAMD14 (11745864_x_at) / Fold change /veh SAMD14 (11745864_x_at) / RFU NPB (11741838_a_at) / Fold change /veh NPB (11741838_a_at) / RFU TMPRSS6 (11731388_a_at) / Fold change /veh TMPRSS6 (11731388_a_at) / RFU KRTAP10-2 (11738614_at) / Fold change /veh KRTAP10-2 (11738614_at) / RFU ARHGAP8 /// PRR5-ARHGAP8 (11727945_x_at) / Fold change /veh ARHGAP8 /// PRR5-ARHGAP8 (11727945_x_at) / RFU KRTAP5-7 /// NADSYN1 (11734609_at) / Fold change /veh KRTAP5-7 /// NADSYN1 (11734609_at) / RFU RASL12 (11751679_a_at) / Fold change /veh RASL12 (11751679_a_at) / RFU CDKN2B (11736163_a_at) / Fold change /veh CDKN2B (11736163_a_at) / RFU PRF1 (11729649_at) / Fold change /veh PRF1 (11729649_at) / RFU, ZNF638 /// ZNF638-IT1 / Fold change vs veh, ZNF638 /// ZNF638-IT1 / RFU, PANK3 / Fold change vs veh, PANK3 / RFU, SH3YL1 / Fold change vs veh, SH3YL1 / RFU, ZEB2 / Fold change vs veh, ZEB2 / RFU, NRIP1 / Fold change vs veh, NRIP1 / RFU, PTTG1IP / Fold change vs veh, PTTG1IP / RFU, CAPN2 / Fold change vs veh, CAPN2 / RFU, MED14 / Fold change vs veh, MED14 / RFU, SNORA58 / Fold change vs veh, SNORA58 / RFU, C1orf63 / Fold change vs veh, C1orf63 / RFU, LRRFIP1 / Fold change vs veh, LRRFIP1 / RFU, NDUFAF7 / Fold change vs veh, NDUFAF7 / RFU, SLC12A2 / Fold change vs veh, SLC12A2 / RFU, IBTK / Fold change vs veh, IBTK / RFU, ESF1 / Fold change vs veh, ESF1 / Fold change vs veh, TMEM50B / RFU, TAOK1 / Fold change vs veh, TAOK1 / RFU, ACBD3 / Fold change vs veh, ACBD3 / RFU, TMA16 / Fold change vs veh, TMA16 / RFU, RWDD3 / Fold change vs veh, RWDD3 / RFU, BCAT1 / Fold change vs veh, BCAT1 / RFU, EDEM3 / Fold change vs veh, EDEM3 / RFU, TMEM33 / Fold change vs veh, TMEM33 / RFU, WDR75 / Fold change vs veh, WDR75 / RFU, AHCTF1 / Fold change vs veh, AHCTF1 / RFU, TFRC / Fold change vs veh, TFRC / RFU, ZDHHC17 / Fold change vs veh, ZDHHC17 / RFU, NOM1 / Fold change vs veh, NOM1 / RFU, ARL8B / Fold change vs veh, ARL8B / RFU, ZBTB11 / Fold change vs veh, ZBTB11 / RFU, TAMM41 / Fold change vs veh, TAMM41 / RFU, KIAA1704 /// LOC100996395 / Fold change vs veh, KIAA1704 /// LOC100996395 / RFU, ING1 / Fold change vs veh, ING1 / RFU, TRMT61B / Fold change vs veh, TRMT61B / RFU, FUBP3 / Fold change vs veh, FUBP3 / RFU, TP53 / Fold change vs veh, TP53 / RFU, TNKS2 / Fold change vs veh, TNKS2 / RFU, ZFP14 / Fold change vs veh, ZFP14 / RFU, ACTR2 / Fold change vs veh, ACTR2 / RFU, PPP3R1 / Fold change vs veh, PPP3R1 / RFU, PIK3R1 / Fold change vs veh, PIK3R1 / RFU, HNRNPA1 / Fold change vs veh, HNRNPA1 / RFU, RNF170 / Fold change vs veh, RNF170 / RFU, ZNF28 / Fold change vs veh, ZNF28 / RFU, RNGTT / Fold change vs veh, RNGTT / RFU, OGT / Fold change vs veh, OGT / RFU, BRD1 / Fold change vs veh, BRD1 / RFU, MARS / Fold change vs veh, MARS / RFU, ZNF655 / Fold change vs veh, ZNF655 / RFU, FAHD1 / Fold change vs veh, FAHD1 / RFU, BDP1 / Fold change vs veh, BDP1 / RFU, LRRCC1 / Fold change vs veh, LRRCC1 / RFU, ARID1A / Fold change vs veh, ARID1A / RFU, ZNF146 / Fold change vs veh, ZNF146 / RFU, ZNF330 / Fold change vs veh, ZNF330 / RFU, GPN3 / Fold change vs veh, GPN3 / RFU, C9orf123 / Fold change vs veh, C9orf123 / RFU, N4BP2L2 / Fold change vs veh, N4BP2L2 / RFU, ARFIP1 / Fold change vs veh, ARFIP1 / RFU, FAM179B / Fold change vs veh, FAM179B / RFU, BCL10 / Fold change vs veh, BCL10 / RFU, UHRF1BP1L / Fold change vs veh, UHRF1BP1L / RFU, BET1 / Fold change vs veh, BET1 / RFU, CNOT2 / Fold change vs veh, CNOT2 / RFU, ZNF268 / Fold change vs veh, ZNF268 / Fold change vs veh, ZNF507 / RFU, DGCR2 / Fold change vs veh, DGCR2 / RFU, WDSUB1 / Fold change vs veh, WDSUB1 / Fold change vs veh, HSP90B1 /// MIR3652 / RFU, ADSS / Fold change vs veh, ADSS / RFU, GK / Fold change vs veh, GK / RFU, ZNF148 / Fold change vs veh, ZNF148 / RFU, TAF9 / Fold change vs veh, TAF9 / RFU, SLC1A5 / Fold change vs veh, SLC1A5 / RFU, SLMO2 / Fold change vs veh, SLMO2 / RFU, ABCC4 / Fold change vs veh, ABCC4 / RFU, LOC101060439 /// RAP1B / Fold change vs veh, LOC101060439 /// RAP1B / RFU, RFX7 / Fold change vs veh, RFX7 / RFU, GTPBP10 / Fold change vs veh, GTPBP10 / RFU, CNEP1R1 / Fold change vs veh, CNEP1R1 / RFU, BIVM-ERCC5 /// ERCC5 / Fold change vs veh, BIVM-ERCC5 /// ERCC5 / RFU, ILF3 / Fold change vs veh, ILF3 / RFU 11762660_at / Fold change /veh 11762660_at / RFU VCAN (11757783_s_at) / Fold change /veh VCAN (11757783_s_at) / RFU DDX43 (11728927_at) / Fold change /veh DDX43 (11728927_at) / RFU KRT8 (11758188_x_at) / Fold change /veh KRT8 (11758188_x_at) / RFU NKD1 (11759106_at) / Fold change /veh NKD1 (11759106_at) / RFU SRD5A1 (11742802_a_at) / Fold change /veh SRD5A1 (11742802_a_at) / RFU TPSAB1 /// TPSB2 (11721975_s_at) / Fold change /veh TPSAB1 /// TPSB2 (11721975_s_at) / RFU GSTM3 (11746129_a_at) / Fold change /veh GSTM3 (11746129_a_at) / RFU IL23R (11737362_x_at) / Fold change /veh IL23R (11737362_x_at) / RFU TMEM51 (11727254_a_at) / Fold change /veh TMEM51 (11727254_a_at) / RFU PIWIL2 (11732686_x_at) / Fold change /veh PIWIL2 (11732686_x_at) / RFU ORM1 (11744905_x_at) / Fold change /veh ORM1 (11744905_x_at) / RFU CCDC152 (11743942_at) / Fold change /veh CCDC152 (11743942_at) / RFU ECM1 (11717891_a_at) / Fold change /veh ECM1 (11717891_a_at) / RFU IL23R (11748794_a_at) / Fold change /veh IL23R (11748794_a_at) / RFU TNFAIP8L3 (11732012_x_at) / Fold change /veh TNFAIP8L3 (11732012_x_at) / RFU MBOAT4 (11741988_at) / Fold change /veh MBOAT4 (11741988_at) / RFU 11764193_at / Fold change /veh 11764193_at / RFU TMEM53 (11763286_at) / Fold change /veh TMEM53 (11763286_at) / RFU MAGEB2 (11727129_at) / Fold change /veh MAGEB2 (11727129_at) / RFU TMEM200A (11744735_a_at) / Fold change /veh TMEM200A (11744735_a_at) / RFU CCDC152 (11751479_a_at) / Fold change /veh CCDC152 (11751479_a_at) / RFU FAM211A (11726209_a_at) / Fold change /veh FAM211A (11726209_a_at) / RFU RGS16 (11746705_a_at) / Fold change /veh RGS16 (11746705_a_at) / RFU VCAN (11755009_s_at) / Fold change /veh VCAN (11755009_s_at) / RFU RHOB (11743442_s_at) / Fold change /veh RHOB (11743442_s_at) / RFU RGS16 (11720943_a_at) / Fold change /veh RGS16 (11720943_a_at) / RFU RGS16 (11720944_at) / Fold change /veh RGS16 (11720944_at) / RFU, VPS4B / Fold change vs veh, VPS4B / RFU, CREB1 / Fold change vs veh, CREB1 / RFU, DNAJC13 / Fold change vs veh, DNAJC13 / RFU, GNAQ / Fold change vs veh, GNAQ / RFU, CDK5R1 / Fold change vs veh, CDK5R1 / RFU, ZRANB3 / Fold change vs veh, ZRANB3 / RFU, CUL4A / Fold change vs veh, CUL4A / RFU, CCNY / Fold change vs veh, CCNY / RFU, UFL1 / Fold change vs veh, UFL1 / RFU, COG3 / Fold change vs veh, COG3 / RFU, DIAPH2 / Fold change vs veh, DIAPH2 / RFU, SKA2 / Fold change vs veh, SKA2 / RFU, AFF3 / Fold change vs veh, AFF3 / RFU, LMF1 / Fold change vs veh, LMF1 / RFU, IPO11 / Fold change vs veh, IPO11 / RFU, DFFB / Fold change vs veh, DFFB / RFU, FOXP1 / Fold change vs veh, FOXP1 / RFU, CARD8 / Fold change vs veh, CARD8 / RFU, STRN3 / Fold change vs veh, STRN3 / RFU, ADK / Fold change vs veh, ADK / RFU, RASSF2 / Fold change vs veh, RASSF2 / RFU, WIPF1 / Fold change vs veh, WIPF1 / RFU, LARP1B / Fold change vs veh, LARP1B / RFU, RASA1 / Fold change vs veh, RASA1 / RFU, RB1 / Fold change vs veh, RB1 / RFU, PPFIA1 / Fold change vs veh, PPFIA1 / RFU, MAT2A / Fold change vs veh, MAT2A / RFU, CCT5 / Fold change vs veh, CCT5 / RFU, WDR92 / Fold change vs veh, WDR92 / RFU, CUX1 / Fold change vs veh, CUX1 / RFU, TTC7A / Fold change vs veh, TTC7A / RFU, TMEM135 / Fold change vs veh, TMEM135 / RFU, DEPTOR / Fold change vs veh, DEPTOR / RFU, CPM / Fold change vs veh, CPM / RFU, DNAJB6 / Fold change vs veh, DNAJB6 / RFU, CACNA2D3 / Fold change vs veh, CACNA2D3 / RFU, DTX4 / Fold change vs veh, DTX4 / RFU, TFCP2 / Fold change vs veh, TFCP2 / RFU, GMCL1 /// GMCL1P1 / Fold change vs veh, GMCL1 /// GMCL1P1 / RFU, AEBP2 / Fold change vs veh, AEBP2 / RFU, SNHG1 /// SNORD22 /// SNORD25 /// SNORD26 /// SNORD27 /// SNORD28 /// SNORD29 /// SNORD31 / Fold change vs veh, SNHG1 /// SNORD22 /// SNORD25 /// SNORD26 /// SNORD27 /// SNORD28 /// SNORD29 /// SNORD31 / Fold change (Aza/veh), C12orf56 (ProbeSet 11735607_a_at) / Fold change (ACY-1035/veh), C12orf56 (ProbeSet 11735607_a_at) / Fold change (Aza/veh), FGFR1OP (ProbeSet 11751329_s_at) / Fold change (ACY-1035/veh), FGFR1OP (ProbeSet 11751329_s_at) / Fold change (Aza/veh), VPS36 (ProbeSet 11739960_a_at) / Fold change (ACY-1035/veh), VPS36 (ProbeSet 11739960_a_at) / RFU SYPL1 (11715823_x_at) / Fold change /veh SYPL1 (11715823_x_at) / RFU IGFBP7 (11715501_s_at) / Fold change /veh IGFBP7 (11715501_s_at) / RFU REEP3 (11722064_at) / Fold change /veh REEP3 (11722064_at) / RFU IGLL1 (11728026_x_at) / Fold change /veh IGLL1 (11728026_x_at): dose or concentration left out as unconfirmed
Details: ProbeSet 11722302_a_at; LIST B

With Nc1ccc(-c2cccs2)cc1NC(=O)c1ccc2c(c1)cc(C1CC1)n2CCN1CCOCC1 [ACY-1035] the “RFU, LRRFIP1” value was 143.54 RFU.
